Experiments:
Format in all cases: binding
[1] = target: T1, dihydroorotase (ScDHOase-T106A) (Saccharomyces cerevisiae, UniProt P20051, T106A); test: intrinsic fluorescence quenching titration
T1 construct: gene URA4

[2] = target: T2, dihydroorotase (ScDHOase-R18A) (Saccharomyces cerevisiae, UniProt P20051, R18A); test: intrinsic fluorescence quenching titration
T2 construct: gene URA4

[3] = target: T3, dihydroorotase (ScDHOase) (Saccharomyces cerevisiae, UniProt P20051); test: Kd by intrinsic fluorescence quenching
T3 construct: gene URA4
T3 sequence (P20051 1-364): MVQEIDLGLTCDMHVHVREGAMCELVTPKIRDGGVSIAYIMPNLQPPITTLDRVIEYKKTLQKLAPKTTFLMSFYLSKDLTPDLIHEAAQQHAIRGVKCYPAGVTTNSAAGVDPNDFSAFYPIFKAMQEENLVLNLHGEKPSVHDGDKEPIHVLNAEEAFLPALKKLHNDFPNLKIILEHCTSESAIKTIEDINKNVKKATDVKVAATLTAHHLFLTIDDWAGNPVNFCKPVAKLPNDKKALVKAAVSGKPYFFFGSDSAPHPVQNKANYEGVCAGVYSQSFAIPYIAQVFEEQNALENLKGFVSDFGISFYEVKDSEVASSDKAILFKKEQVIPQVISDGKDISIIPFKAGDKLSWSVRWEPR

T1 sequence (P20051 whole entry T106A): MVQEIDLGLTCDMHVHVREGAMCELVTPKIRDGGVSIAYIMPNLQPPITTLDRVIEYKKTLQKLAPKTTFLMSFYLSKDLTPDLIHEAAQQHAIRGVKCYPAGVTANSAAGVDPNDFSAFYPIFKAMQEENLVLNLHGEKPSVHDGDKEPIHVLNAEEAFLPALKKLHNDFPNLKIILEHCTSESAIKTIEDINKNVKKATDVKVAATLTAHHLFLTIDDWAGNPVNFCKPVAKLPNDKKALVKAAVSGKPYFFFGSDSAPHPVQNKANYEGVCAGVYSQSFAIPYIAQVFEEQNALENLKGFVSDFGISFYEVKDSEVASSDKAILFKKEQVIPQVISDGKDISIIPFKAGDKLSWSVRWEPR
T2 sequence (P20051 whole entry R18A): as the sequence (P20051 whole entry T106A) above, with R18A, A106T counted along it

In the case of `O=C(O)c1[nH]c(=O)[nH]c(=O)c1F` [5-FOA, 5-fluoroorotate], the Kd [1] is reported as 115 ± 3.7 µM, the Kd [2] is reported as 144 ± 2.1 µM and the Kd [3] is reported as 83.8 ± 1.5 µM.

— PMC8497156, “Complexed Crystal Structure of Saccharomyces cerevisiae Dihydroorotase with Inhibitor 5-Fluoroorotate Reveals a New Binding Mode” (Bioinorganic Chemistry and Applications, 2021)
